The source of these data is paper PMC7397269, “Synthesis and Evaluation of New Coumarin Derivatives as Antioxidant, Antimicrobial, and Anti-Inflammatory Agents” (Molecules, 2020).

Molecules are shown by their SMILES. ≈ marks a conversion by molar mass, not a printed value. Where “and” joins values, the source holds several entries; their conditions need not be identical. Equal entries are not always repeated. Where two headings read alike, the source gives them in different places.

Assay [1] has as its system Bacillus megaterium ATCC 9885. Put plainly: MIC, two-fold serial dilution, B. megaterium. Type of assay: cell-based. As to conditions: Priestia megaterium, ATCC9885, read-out: Minimum inhibitory concentration, BM. In outline: (§1)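 Compounds with agar-well inhibition zones >16 mm were retested by two-fold broth dilution at final concentrations of 1000, 500, 250 and 125 μg/mL. Inocula of 1 × 10^8 CFU/mL (bacteria) or 1 × 10^6 CFU/mL (yeast), 0.1 mL per 5 mL. MIC = lowest concentration without growth after 24 h at 37 °C.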

Assay [2] is described as follows: DPPH antioxidant assay (radical scavenging). It is filed as biochemical. As to conditions: mean ± SD (n = 3). In outline: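 Compounds, starting at 200 μg/mL, were mixed with 0.2 mM methanolic DPPH and incubated 30 min in the dark at 25 °C; absorbance was read at 515 nm. % inhibition is background-corrected against DPPH-only control, with IC50 from curve fit. Runs were triplicate (mean ± SD), with ascorbic acid as positive control.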

Assay [3] concerns Staphylococcus aureus ATCC 29213. As to the kind of experiment: Agar well diffusion, S. aureus. As to conditions: ATCC29213, 100 μL of 10 mg/mL in DMSO, read-out: diameter of inhibition zone, SA. It is filed as cell-based. In outline: (§2)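 Wells (10 mm) in nutrient agar (bacteria, 1 × 10^8 CFU/mL) or Sabouraud dextrose agar (yeast, 1 × 10^6 CFU/mL) loaded with 100 μL of 10 mg/mL compound in DMSO. Plates incubated 24 h at 37 °C. Inhibition zone diameter (mm), mean of triplicates.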
A general note: In agar diffusion tests the substance spreads into inoculated agar from a disc or well.

The subject of assay [4] is Pseudomonas aeruginosa ATCC 27,953. Put plainly: Agar well diffusion, P. aeruginosa. Type of assay: cell-based. As to conditions: ATCC27, 100 μL of 10 mg/mL in DMSO, read-out: diameter of inhibition zone, PA. An outline of the steps: as §2
Assay [5] deals with Bacillus subtilis ATCC 6633. As to the kind of experiment: MIC, two-fold serial dilution, B. subtilis. Type of assay: cell-based. As to conditions: ATCC6633, read-out: Minimum inhibitory concentration, BS. An outline of the steps: as §1
The test system of assay [6] is Staphylococcus aureus ATCC 29213. As to the kind of experiment: MIC, two-fold serial dilution, S. aureus. It is filed as cell-based. Conditions: ATCC29213, read-out: Minimum inhibitory concentration, SA. An outline of the steps: as §1
A further assay has as its target T1, COX-2 (Homo sapiens, UniProt P35354).
T1 construct: purchased Cayman Chemical 701080
T1 sequence (P35354 18-604): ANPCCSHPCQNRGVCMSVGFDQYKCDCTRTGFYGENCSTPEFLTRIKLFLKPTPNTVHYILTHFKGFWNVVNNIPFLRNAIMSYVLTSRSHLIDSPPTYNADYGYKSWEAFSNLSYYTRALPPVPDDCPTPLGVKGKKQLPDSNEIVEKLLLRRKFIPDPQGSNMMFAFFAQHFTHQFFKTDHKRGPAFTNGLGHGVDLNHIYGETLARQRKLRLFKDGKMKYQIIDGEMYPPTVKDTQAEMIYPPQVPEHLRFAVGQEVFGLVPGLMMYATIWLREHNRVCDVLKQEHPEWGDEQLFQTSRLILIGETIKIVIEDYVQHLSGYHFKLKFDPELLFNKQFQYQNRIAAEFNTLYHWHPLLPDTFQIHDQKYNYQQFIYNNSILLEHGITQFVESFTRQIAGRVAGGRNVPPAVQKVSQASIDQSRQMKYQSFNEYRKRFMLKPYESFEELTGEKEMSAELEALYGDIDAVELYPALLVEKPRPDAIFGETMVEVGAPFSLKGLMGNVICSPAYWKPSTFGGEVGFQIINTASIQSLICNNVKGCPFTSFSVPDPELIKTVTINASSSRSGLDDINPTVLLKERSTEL
As to the kind of experiment: COX-2 inhibition, Cayman assay kit. It is filed as biochemical. As to conditions: for IC50: mean of two determinations; for SI, selectivity index (COX-1/COX-2): ratio of COX-1/COX-2 IC50.

Assay [7] has as its system Bacillus megaterium ATCC 9885. Put plainly: Agar well diffusion, B. megaterium. Type of assay: cell-based. As to conditions: Priestia megaterium, ATCC9885, 100 μL of 10 mg/mL in DMSO, read-out: diameter of inhibition zone, BM. In outline: as §2
Assay [8] has as its system Saccharomyces cerevisiae local isolate. As to the kind of experiment: MIC, two-fold serial dilution, S. cerevisiae. Type of assay: cell-based. As to conditions: read-out: Minimum inhibitory concentration, SC. In outline: as §1
The test system of assay [9] is Escherichia coli ATCC 2592. Put plainly: MIC, two-fold serial dilution, E. coli. It is filed as cell-based. Conditions: ATCC2592, read-out: Minimum inhibitory concentration, EC. The source says: The new molecules were individually tested for their antimicrobial activity in vitro against standard bacteria strains from the American Type Culture Collection (ATCC), namely, Staphylococcus aureus ATCC 29213, Bacillus subtilis ATCC 6633, Bacillus megaterium ATCC 9885 (Gram-positive), Escherichia coli ATCC 2592, and Pseudomonas aeruginosa ATCC 27,953 (Gram-negative). The compounds were also microbiologically tested against locally isolated Saccharomyces cerevisiae (yeast) and the standard Agricultural Research Service Culture Collection (NRRL) strain of the yeast-like pathogenic fungus Candida albicans NRRL Y-477. Primary screening was conducted using the agar well diffusion method using nutrient agar (NA) medium and Sabourand dextrose agar (SDA) medium for the tested pathological bacteria and yeast, respectively. […].
The bacteriostatic activity of the active compounds (having IZ > 16 mm) was then evaluated using the two-fold serial dilution technique. Two-fold serial dilutions of the tested compounds solutions were prepared using the proper nutrient broth to reach final concentrations of 1000, 500, 250, and 125 μg/mL. The tubes were then inoculated with the test microorganisms grown in their suitable broth at 37 °C for 24 h (1 × 10^8 CFU/mL for bacteria and 1 × 10^6 CFU/mL of yeast), 0.1 mL of the above inoculum was administered per 5 mL, and the tubes were incubated at 37 °C for 24 h. The lowest concentration showing no growth was taken as the MIC.

Assay [10] concerns Candida albicans NRRL Y-477. As to the kind of experiment: Agar well diffusion, C. albicans. It is filed as cell-based. As to conditions: NRRLY477, 100 μL of 10 mg/mL in DMSO, read-out: diameter of inhibition zone, CA. In outline: as §2
[11] abbreviates: two-fold serial dilution, S. cerevisiae.

A word on the IC50: it is the concentration at which inhibition is half-maximal. Lower therefore signals greater potency. What is called zone of inhibition is the size of the clear area around the sample on an inoculated plate. Turning to `Cc1ccc2oc(=O)c3c(c2c1)OC(N)=C(C#N)C3c1ccc([N+](=O)[O-])cc1` (racemic) [2a, (±)-2-Amino-9-methyl-4-(4-nitrophenyl)-5-oxo-4H,5H-pyrano[3,2-c]chromene-3-carbonitrile], the MIC in [1] stood at 500 µg/mL (≈ 1330 µM); in assay [5], 500 µg/mL (≈ 1330 µM); in assay [6], 500 µg/mL (≈ 1330 µM); in [8], 500 µg/mL (≈ 1330 µM); in assay [9], 1000 µg/mL (≈ 2660 µM). The IC50 result was “— ((—): inactive (IC50 > 200 μg/mL))” in assay [2] and 2.74 µM on COX-2. In addition, the zone of inhibition at 10000 µg/mL in assay [3] was determined as 24 mm; in [4], 20 mm; in [7] it was 25 mm; in assay [10] it was 22 mm. On COX-2, the “SI, selectivity index (COX-1/COX-2)” value amounted to 42.58.
Turning to `COc1cc(/C=N/C2=C(C#N)C(c3ccc([N+](=O)[O-])cc3)c3c(c4cc(C)ccc4oc3=O)O2)cc(OC)c1OC` (racemic) [5c, (±)-9-methyl-4-(4-nitrophenyl)-5-oxo-2-((3,4,5-trimethoxybenzylidene)amino)-4H,5H-pyrano[3,2-c]chromene-3-carbonitrile], the MIC in assay [1], in assay [5], in [6], in assay [8] and in assay [9] was 500 µg/mL (≈ 903 µM) each time. Also, the half-inhibitory concentration (IC50) entry in assay [2] was “— ((—): inactive (IC50 > 200 μg/mL))”; against COX-2, 13.3 µM. Besides, the zone of inhibition at 10000 µg/mL in [3] was determined as 23 mm; in assay [4] it was 25 mm; in [7], 24 mm; in [10], 24 mm. Moreover, the “SI, selectivity index (COX-1/COX-2)” value at COX-2 stood at 1.39.
Turning to `Cc1ccc2oc(=O)c(S(=O)(=O)Nc3ccccc3)c(O)c2c1` [8b, 4-Hydroxy-6-methyl-2-oxo-N-phenyl-2H-chromene-3-sulfonamide], the MIC in [1], in assay [5], in [6], in assay [8] (setting [11]) and in assay [9] was 1000 µg/mL (≈ 3020 µM) in each case. Besides, the results for the concentration for half-maximal inhibition (IC50) (in [2]; at COX-2) were 19.25 ± 4.171 µg/mL (≈ 58.1 µM) and 13.4 µM, respectively. For the same compound, the zone of inhibition at 10000 µg/mL is 20 mm in assay [3], 17 mm in assay [4], 24 mm in assay [7] and 20 mm in assay [10]. Also, the “SI, selectivity index (COX-1/COX-2)” value on COX-2 is reported as 1.94.
`O=c1oc2ccc(Cl)cc2c(O)c1S(=O)(=O)Nc1ccccc1` [8a, 6-Chloro-4-hydroxy-2-oxo-N-phenyl-2H-chromene-3-sulfonamide]: the MIC was determined as 250 µg/mL (≈ 711 µM) in assay [1]; 250 µg/mL (≈ 711 µM) in assay [5]; 500 µg/mL (≈ 1420 µM) in [6]; 250 µg/mL (≈ 711 µM) in assay [8] (setting [11]); 500 µg/mL (≈ 1420 µM) in [9]. Further, the values for the IC50 (in assay [2]; on COX-2) were 14.51 ± 1.827 µg/mL (≈ 41.2 µM) and 8.5 µM, respectively. Also, the zone of inhibition at 10000 µg/mL in assay [3] was determined as 26 mm; in [4], 26 mm; in [7], 29 mm; in assay [10], 29 mm. The “SI, selectivity index (COX-1/COX-2)” value at COX-2 turned out to be 2.94.
With `O=c1oc2ccc(Cl)cc2c(O)c1S(=O)(=O)Nc1ccc(O)cc1` [8c, 6-Chloro-4-hydroxy-N-(4-hydroxyphenyl)-2-oxo-2H-chromene-3-sulfonamide], the MIC in assay [1] came to 250 µg/mL (≈ 680 µM); in [5], 125 µg/mL (≈ 340 µM); in assay [6], 125 µg/mL (≈ 340 µM); in assay [8] (setting [11]), 125 µg/mL (≈ 340 µM); in assay [9], 250 µg/mL (≈ 680 µM). The results for the IC50 (in [2]; at COX-2) were 3.87 ± 0.409 µg/mL (≈ 10.5 µM) and 11.9 µM, respectively. Moreover, the zone of inhibition at 10000 µg/mL in [3] came to 30 mm; in assay [4], 29 mm; in assay [7], 28 mm; in [10] it was 30 mm. For the same compound, the “SI, selectivity index (COX-1/COX-2)” value on COX-2 is 1.3 and 1.29.
Consider `O=c1oc2ccc(Cl)cc2c(O)c1S(=O)(=O)Nc1ccc(S(=O)(=O)Nc2ncccn2)cc1` [7c, 6-Chloro-4-hydroxy-2-oxo-N-(4-(N-(pyrimidin-2-yl)sulfamoyl)phenyl)-2H-chromene-3-sulfonamide], for which the MIC in [1], in [5], in assay [6], in [8] (setting [11]) and in assay [9] was 125 µg/mL (≈ 246 µM) in each case. For the same compound, the IC50 in [2] was 120.12 ± 4.629 µg/mL (≈ 236 µM); against COX-2, 19.9 µM. Further, the zone of inhibition at 10000 µg/mL came to 30 mm in [3], 24 mm in assay [4], 30 mm in assay [7] and 27 mm in assay [10]. Also, the “SI, selectivity index (COX-1/COX-2)” value on COX-2 turned out to be 3.12.
In the case of `Cc1ccc2oc(=O)c(S(=O)(=O)Nc3ccc(S(=O)(=O)Nc4ncccn4)cc3)c(O)c2c1` [7d, 4-Hydroxy-6-methyl-2-oxo-N-(4-(N-(pyrimidin-2-yl)sulfamoyl)phenyl)-2H-chromene-3-sulfonamide], the MIC in [1], in assay [5], in assay [6], in assay [8] (setting [11]) and in assay [9] was 125 µg/mL (≈ 256 µM) throughout. Further, the 50% inhibitory concentration (IC50) in assay [2] was 112.19 ± 4.391 µg/mL (≈ 230 µM); on COX-2 it was 3.35 µM. Further, the zone of inhibition at 10000 µg/mL in assay [3] is 30 mm; in assay [4], 25 mm; in assay [7], 30 mm; in assay [10] it was 30 mm. Further, the “SI, selectivity index (COX-1/COX-2)” value at COX-2 is 63.96.
`NS(=O)(=O)c1ccc(NS(=O)(=O)c2c(O)c3cc(Cl)ccc3oc2=O)cc1` [7a, 6-Chloro-4-hydroxy-2-oxo-N-(4-sulfamoylphenyl)-2H-chromene-3-sulfonamide]: the MIC in assay [1] stood at 500 µg/mL (≈ 1160 µM); in assay [5] it was 250 µg/mL (≈ 580 µM); in assay [6], 250 µg/mL (≈ 580 µM); in assay [8] (setting [11]) it was 250 µg/mL (≈ 580 µM); in assay [9] it was 250 µg/mL (≈ 580 µM). Besides, the IC50 was 93.12 ± 0.727 µg/mL (≈ 216 µM) in [2] and 17.4 µM against COX-2. Also, the zone of inhibition at 10000 µg/mL in [3] worked out at 28 mm; in [4], 27 mm; in [7] it was 25 mm; in [10] it was 26 mm. In addition, the “SI, selectivity index (COX-1/COX-2)” value at COX-2 worked out at 13.75.
